“And” between values parts separate entries of the source, which are not always exact repeats. Equal entries are not always repeated. One block for each compound: values may come before it.
Tests used:
[1] = tested on: naïve B-cells; assay: Liposome binding to peripheral blood naïve B-cells by flow cytometry; format: cell-based, human; details: sheet Figure S29, 5% GM3-DAG liposomes; cells not given
Description: (§1) 200,000 cells/well were plated into a 96-well U-bottom microplate and centrifuged at 300 × g for 5 min. The cells were then resuspended in 50 µL of 50 µM liposome/50 µg/mL (protein concentration) of EV solution in DMEM F12 5% FBS and incubated at 37 °C for 30 min. Excess liposomes were then removed via centrifuged at 300 × g for 5 min followed by washing the cells with FACS solution. The cells were then resuspended in (1:250 V/V) anti-Siglec-flow buffer (1% V/V FBS, 500 µM, EDTA Hank’s Balanced Salt Solution pH 7.4), solution and left to rest on ice for 30 min. The cells were then centrifuged again at 300 × g for 5 min and the cells were resuspended in FACS buffer solution and were then ready for analysis by flow cytometry. Information regarding antibody clone, catalog number supplier, label isotype, and dilution can be found in Supplementary Table 6. The Siglec-positive cells were gated on for liposome-binding analysis (Supplementary Fig. 1b).
(§2) Flow cytometry measurements were collected on a 5-laser Fortessa X-20 (BD Bioscience). All the resulting data were analyzed using FlowJo (10.5.3) software (BD Biosciences).

[2] = target: T1, CHO cells expressing Siglec-6 mutants (C46A, C172A, R to A mutants, F93A, L95A, G175M) (Homo sapiens, UniProt O43699, R114A); assay: Cell assay (liposome/EV binding, flow cytometry); format: cell-based; details: sheet Figure S26a, 3% GM3-DAG liposomes, R114A;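 as to liposome binding, fluorescence signal (replicates): AF647 fluorescence intensity from 0.1 mol% AF647–PEG45–DSPE in liposomes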
T1 construct: These new CHO cell lines are the full-length versions of the Siglecs; expressed in transfected cells
Description: (§3) Mutations were introduced into each Siglec via gene overlap extension PCR mutagenesis (primers were ordered through IDT). Mutagenesis primers can be found in Supplementary Tables 2 and 3 for the critical arginine mutants of the entire Siglec family and the additional Siglec-6 mutants respectively.
as §1, §2

[3] = target: T2, CHO cells expressing Siglec-6 mutants (C46A, C172A, R to A mutants, F93A, L95A, G175M) (Homo sapiens, UniProt O43699, G175M); assay: Cell assay (liposome/EV binding, flow cytometry); format: cell-based; details: sheet Figure S28b, 3% GM3-DAG liposomes, G175M;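 as to liposome binding, fluorescence signal (replicates): AF647 fluorescence intensity from 0.1 mol% AF647–PEG45–DSPE in liposomes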
T2 construct: These new CHO cell lines are the full-length versions of the Siglecs; expressed in transfected cells
Description: as §3, §1, §2

[4] = target: T3, CHO cells expressing Siglec-6 mutants (C46A, C172A, R to A mutants, F93A, L95A, G175M) (Homo sapiens, UniProt O43699, C172A); assay: Cell assay (liposome/EV binding, flow cytometry); format: cell-based; details: sheet Figure S26a, 3% GM3-DAG liposomes, C172A;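 as to liposome binding, fluorescence signal (replicates): AF647 fluorescence intensity from 0.1 mol% AF647–PEG45–DSPE in liposomes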
T3 construct: These new CHO cell lines are the full-length versions of the Siglecs; expressed in transfected cells
Description: as §3, §1, §2

[5] = target: T4, CHO cells expressing Siglec-6 mutants (C46A, C172A, R to A mutants, F93A, L95A, G175M) (Homo sapiens, UniProt O43699, E88A); assay: Cell assay (liposome/EV binding, flow cytometry); format: cell-based; details: sheet Figure S28b, 3% GM3-DAG liposomes, E88A;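 as to liposome binding, fluorescence signal (replicates): AF647 fluorescence intensity from 0.1 mol% AF647–PEG45–DSPE in liposomes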
T4 construct: These new CHO cell lines are the full-length versions of the Siglecs; expressed in transfected cells
Description: as §3, §1, §2

[6] = target: T5, CHO cells expressing Siglec-6 mutants (C46A, C172A, R to A mutants, F93A, L95A, G175M) (Homo sapiens, UniProt O43699, R92A); assay: Cell assay (liposome/EV binding, flow cytometry); format: cell-based; details: sheet Figure S26a, 3% GM3-DAG liposomes, R92A
T5 construct: These new CHO cell lines are the full-length versions of the Siglecs; expressed in transfected cells
Description: as §3, §1, §2

[7] = target: T6, CHO cells expressing Siglec-6 mutants (C46A, C172A, R to A mutants, F93A, L95A, G175M) (Homo sapiens, UniProt O43699, E87A); assay: Cell assay (liposome/EV binding, flow cytometry); format: cell-based; details: sheet Figure S28b, 3% GM3-DAG liposomes, E87A
T6 construct: These new CHO cell lines are the full-length versions of the Siglecs; expressed in transfected cells
Description: as §3, §1, §2

[8] = tested on: CHO cells expressing Siglec-6/8 chimeras; assay: Cell assay (liposome binding, flow cytometry); format: cell-based, human
Description: as §1, §2
The genes for the constructs containing each domain of Siglec-6 to the two others from Siglec-8 were synthesized by GeneArt and designed with a 5’ NheI and 3’ AgeI site immediately before the start codon and stop codon respectively. […]

[9] = target: T7, R92K Siglec-6 CHO cells (Homo sapiens, UniProt O43699, R92K); assay: Cell assay (liposome/EV binding, flow cytometry); format: cell-based
T7 construct: These new CHO cell lines are the full-length versions of the Siglecs; expressed in transfected cells
Description: as §3
as §1, with “The Siglec-positive cells were gated on for liposome-binding analysis (Supplementary Fig. 1b).” left out
as §2

[10] = tested on: LAD2 cells; assay: Liposome/EV binding to LAD2 cells by flow cytometry; format: cell-based, human
Description: as §1, §2
The LAD2 cell line (a gift from Arnold Kirshenbaum) was cultured in StemPro-34 SFM media (Life Technologies) supplemented with 2 mM L-glutamine, 100 U/ml penicillin, […] streptomycin, and 100 ng/ml recombinant human SCF (PeproTech, Rocky Hill, NJ). […]

[11] = tested on: CHO cells expressing Siglec-6 mutants (C46A, C172A, R to A mutants, F93A, L95A, G175M); assay: Cell assay (liposome/EV binding, flow cytometry); format: cell-based, human; details: cell assay
Description: as §3, §1, §2

[12] = target: T8, Daudi cells transduced with WT Siglec-6 (Homo sapiens, UniProt O43699); assay: Imaging flow cytometry internalization; format: cell-based; details: 60 min at 4 or 37 °C
T8 construct: expressed in transfected cells; host or cells: Daudi cells (human B-cell line), lentiviral transduction
Description: Approximately 2 × 10^5 Daudi cells/well were plated into a 96-well U-bottom microplate and centrifuged at 300 × g for 5 min. The cell pellets were placed on ice, and 50 µL of 100 µM of liposome or 1:20 µL of EVs in RPMI growth medium (Gibco) containing 10% (V/V) fetal bovine serum (FBS; Gibco), 100 U/mL penicillin (Gibco), and 100 µg/mL streptomycin (Gibco) was added to their corresponding wells. Plates were incubated for 1 h at either 4 or 37 °C. After incubation, plates were centrifuged at 300 × g, 5 min, 4 °C then incubated with fluorescently conjugated anti-Siglec-6 antibody (Alexa Fluor 488; 1:250 dilution; R&D Systems) for 25 min at 4 °C. The plates were centrifuged once more at 300 × g, 4 °C, 5 min and the resulting cell pellet was resuspended in 40 µL of flow buffer (1% FBS, 500 µM EDTA Hank’s Balanced Salt Solution pH 7.4). 5000 events were collected for each sample using the ImageStream®X Mk II Flow cytometer (excitation lasers 488 nm and 642 nm, ×60 magnification). Data analysis was performed using IDEAS software, version 6.2.

[13] = tested on: Daudi cells transduced with an empty vector; assay: pHrodo internalization assay by flow cytometry; format: cell-based, human; details: sheet Figure S42b

T7 sequence (O43699 27-453 R92K): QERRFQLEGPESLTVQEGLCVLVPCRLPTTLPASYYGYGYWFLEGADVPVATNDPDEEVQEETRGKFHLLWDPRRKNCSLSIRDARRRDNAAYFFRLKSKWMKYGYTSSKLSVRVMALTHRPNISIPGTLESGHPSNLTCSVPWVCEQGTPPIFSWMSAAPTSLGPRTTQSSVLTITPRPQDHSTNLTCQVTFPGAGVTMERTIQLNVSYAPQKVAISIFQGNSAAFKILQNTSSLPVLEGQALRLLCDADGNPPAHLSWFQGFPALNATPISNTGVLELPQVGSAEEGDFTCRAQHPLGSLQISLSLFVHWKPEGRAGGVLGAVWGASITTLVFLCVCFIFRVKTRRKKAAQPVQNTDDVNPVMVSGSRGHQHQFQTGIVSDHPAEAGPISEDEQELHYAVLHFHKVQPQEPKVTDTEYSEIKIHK
T2 sequence (O43699 27-453 G175M): as the sequence (O43699 27-453 R92K) above, with K66R, G149M counted along it
T1 sequence (O43699 27-453 R114A): as the sequence (O43699 27-453 R92K) above, with K66R, R88A counted along it
T3 sequence (O43699 27-453 C172A): as the sequence (O43699 27-453 R92K) above, with K66R, C146A counted along it
T4 sequence (O43699 27-453 E88A): as the sequence (O43699 27-453 R92K) above, with E62A, K66R counted along it
T6 sequence (O43699 27-453 E87A): as the sequence (O43699 27-453 R92K) above, with E61A, K66R counted along it
T5 sequence (O43699 27-453 R92A): as the sequence (O43699 27-453 R92K) above, with K66A counted along it
T8 sequence (O43699 27-453): as the sequence (O43699 27-453 R92K) above, with K66R counted along it

liposome binding, fluorescence signal (replicates) [2]: 3286 and 2523 and 2193 and 4407 | liposome binding, fluorescence signal (replicates) [3]: 928 and 1026 and 962 and 868 | liposome binding, fluorescence signal (replicates) [4]: 837 and 738 and 839 and 676 | liposome binding, fluorescence signal (replicates) [5]: 2063 and 2173 and 2053 | liposome binding, fluorescence signal (replicates) [6]: 242 and 228 and 244 and 252 | liposome binding, fluorescence signal (replicates) [7]: 2391 and 2152 and 2127
Compound: CCCCCCCCCCCCCCCCOCC(COCCCCCCCCCCCCCCCC)OCc1cn(CCO[C@@H]2O[C@H](CO)[C@@H](O[C@@H]3O[C@H](CO)[C@H](O)[C@H](O[C@]4(C(=O)O)C[C@H](O)[C@@H](NC(C)=O)[C@H]([C@H](O)[C@H](O)CO)O4)[C@H]3O)[C@H](O)[C@H]2O)nn1 [GM3-DAG]
liposome binding, fluorescence signal (replicates) [1]: 154 and 151 and 136 and 149

5 liposome binding gated on identical Siglec-6 expression levels, MFI (Fig. S26e) ([9]; R92K Siglec-6, replicates): 29.25 and 36.25 and 24.25 | 5 nGLL binding to R92K Siglec-6 CHO cells ([9]; cell assay, expression 42% of WT): minimal binding
Compound: CCCCCCCCCCCCCCCCOCC(COCCCCCCCCCCCCCCCC)OCc1cn(CCO[C@@H]2O[C@H](CO)[C@@H](O[C@@H]3O[C@H](CO)[C@H](O)[C@H](O[C@]4(C(=O)O)C[C@H](O)[C@@H](NC(C)=O)[C@H]([C@H](O)[C@H](O)CO)O4)[C@H]3O)[C@H](O)[C@H]2O)nn1 [nGL 5]
5 liposome binding to chimeras with one individual Siglec-6 domain [8]: none of the three individual Siglec-6 domains supported binding | 5 nGLL binding to chimera with the first two domains of Siglec-6 [8]: significantly above background | 5 nGLL binding to LAD2 cells [10]: bound robustly | 5 nGLL binding to LAD2 cells after pre-incubation with a Siglec-6 antibody [10]: abrogated | 5 nGLL binding to C46A and C172A mutants of Siglec-6 [11]: did not recognize | 5 nGLL binding to F93A, L95A and G175M Siglec-6 mutants [11]: significantly decreased binding | 5 nGLL binding to R109A and R114A Siglec-6 mutants [11]: modest reduction in binding | 5 nGLL binding to R92A and R100A Siglec-6 mutants ([11]; both expressed at low levels): more pronounced reduction in binding | internalization of 5 nGLLs by imaging flow cytometry [12]: internalize 5 nGLLs at 37 °C but not 4 °C

Compound: GM3
liposome internalization signal (replicates) ([13]; Emp-4 (empty vector, 4)): 6.1 and 7 and 8.7 and 6.3 | liposome internalization signal (replicates) ([13]; emp-37 (empty vector, 37)): 11.2 and 11.5 and 13.6 and 13.8

— publication PMC10122656, “Siglec-6 mediates the uptake of extracellular vesicles through a noncanonical glycolipid binding pocket” (Nature Communications, 2023)
